{"source": "paper PMC11299231", "about": "(Steroids, 2024)", "key": {"HaCaT": {"tested_on": "HaCaT", "assay": "Antiproliferative activity assay", "type": "cell-based, human", "conditions": "for IC50: read-out: IC50 ± SEM, HaCaT, 48 h"}, "DU145 (AR-)": {"tested_on": "DU145 (AR-)", "assay": "Antiproliferative activity assay", "type": "cell-based, human", "conditions": "for IC50: read-out: IC50 ± SEM, DU145 (AR−)"}, "HT-29": {"tested_on": "HT-29", "assay": "Antiproliferative activity assay", "type": "cell-based, human", "conditions": "read-out: IC50 ± SEM, HT-29"}, "PC3 (AR-)": {"tested_on": "PC3 (AR-)", "assay": "Antiproliferative activity assay", "type": "cell-based, human", "conditions": "for IC50: read-out: IC50 ± SEM, PC3 (AR−), 48 h"}, "M21": {"tested_on": "M21", "assay": "Antiproliferative activity assay", "type": "cell-based, human", "conditions": "read-out: IC50 ± SEM, M21"}, "MCF7 (ER + )": {"tested_on": "MCF7 (ER + )", "assay": "Antiproliferative activity assay", "type": "cell-based, human", "conditions": "read-out: IC50 ± SEM, MCF7 (ER + )"}, "LNCaP (AR + )": {"tested_on": "LNCaP (AR + )", "assay": "Antiproliferative activity assay", "type": "cell-based, human", "conditions": "read-out: IC50 ± SEM, LNCaP (AR + ); prostate adenocarcinoma cells, 48 h, SRB"}, "T84 wt": {"tested_on": "T84 wt", "assay": "Antiproliferative activity assay", "type": "cell-based, human", "conditions": "for IC50: read-out: IC50 ± SEM, T84 wt, 48 h"}, "CYP3A4 [1]": {"target": "T1, CYP3A4 (Homo sapiens, UniProt P08684)", "T1 sequence (P08684 whole entry)": "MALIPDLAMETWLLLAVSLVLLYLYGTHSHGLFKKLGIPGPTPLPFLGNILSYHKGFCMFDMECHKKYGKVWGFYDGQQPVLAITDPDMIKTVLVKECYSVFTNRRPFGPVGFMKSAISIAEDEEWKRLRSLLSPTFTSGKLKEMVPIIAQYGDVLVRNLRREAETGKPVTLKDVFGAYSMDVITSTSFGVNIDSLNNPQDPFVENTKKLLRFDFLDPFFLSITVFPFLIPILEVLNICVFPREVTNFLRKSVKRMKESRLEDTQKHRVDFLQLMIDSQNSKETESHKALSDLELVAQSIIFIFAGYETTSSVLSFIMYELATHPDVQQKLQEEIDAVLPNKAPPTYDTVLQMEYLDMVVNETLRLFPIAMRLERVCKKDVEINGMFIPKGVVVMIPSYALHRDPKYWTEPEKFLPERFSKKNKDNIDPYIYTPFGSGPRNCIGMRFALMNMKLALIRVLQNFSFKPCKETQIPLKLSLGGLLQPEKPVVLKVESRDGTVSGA", "conditions": "Soret band blue shift, recombinant CYP3A4"}, "MDA-MB-231 (ER-)": {"tested_on": "MDA-MB-231 (ER-)", "assay": "Antiproliferative activity assay", "type": "cell-based, human", "conditions": "read-out: IC50 ± SEM, MDA-MB-231 (ER−)"}, "CYP3A4 [2]": {"target": "T1, CYP3A4", "conditions": "read-out: IC50, BFC debenzylation activity of CYP3A4; soluble reconstituted system, 37 °C, BFC substrate"}, "[3]": {"conditions": "at the maximal concentration tested (5 μM)"}, "[4]": {"conditions": "at the maximum concentration tested (5 μM)"}, "[5]": {"conditions": "breast carcinoma cells, 48 h, SRB"}}, "note": "Read-outs that look alike come from different tables or passages of the source."}
{"smiles": "C[C@]12CC[C@H]3[C@@H]([C@H](C/C=C/Cn4cc([C@]5(O)CC[C@H]6[C@@H]7CCc8cc(O)ccc8[C@H]7CC[C@@]65C)nn4)CC4=CC(=O)CC[C@@]43C)[C@@H]1CC[C@@H]2O", "note": "[Compound 1, (E)-17β-hydroxy-7α-{4-[4-(estradiol-17α-yl)-[1,2,3]triazol-1-yl]-but-2-enyl}−4-androsten-3-one]", "values": [{"measurement": "antiproliferative activity on HaCaT cells", "setting": "HaCaT; [3]", "result": "inactive"}, {"measurement": "IC50", "setting": "HaCaT; normal immortalized human keratinocytes, SRB", "result": "> 5", "unit": "µM"}, {"measurement": "antiproliferative effect on DU145 (AR-) cells", "setting": "DU145 (AR-); [4]", "result": "no effect"}, {"measurement": "IC50", "setting": "DU145 (AR-); prostate adenocarcinoma cells, 48 h, SRB", "result": "> 5", "unit": "µM"}, {"measurement": "IC50", "setting": "HT-29; colon carcinoma cells, 48 h, SRB", "result": "3.5 ± 0.1", "unit": "µM"}, {"measurement": "antiproliferative effect on PC3 (AR-) cells", "setting": "PC3 (AR-); [4]", "result": "no effect"}, {"measurement": "IC50", "setting": "PC3 (AR-); prostate adenocarcinoma cells, SRB", "result": "> 5", "unit": "µM"}, {"measurement": "IC50", "setting": "M21; melanoma cells, 48 h, SRB", "result": "2.3 ± 0.1", "unit": "µM"}, {"measurement": "IC50", "setting": "MCF7 (ER + ); [5]", "result": "4.9 ± 0.4", "unit": "µM"}, {"measurement": "IC50", "setting": "LNCaP (AR + )", "result": "> 5", "unit": "µM"}, {"measurement": "antiproliferative activity on T84 wt cells", "setting": "T84 wt; [3]", "result": "inactive"}, {"measurement": "IC50", "setting": "T84 wt; colon adenocarcinoma cells, SRB", "result": "> 5", "unit": "µM"}, {"measurement": "high-spin shift", "setting": "CYP3A4 [1]", "result": 23, "unit": "%"}, {"measurement": "IC50", "setting": "MDA-MB-231 (ER-); [5]", "result": "> 5", "unit": "µM"}, {"measurement": "IC50", "setting": "CYP3A4 [2]", "result": "> 5", "unit": "µM"}]}
{"smiles": "CC/C(=C(\\c1ccc(O)cc1)c1ccc(OCCN(C)C)cc1)c1ccccc1", "note": "[Compound 4-OHT, 4-hydroxytamoxifen, reference compound]", "values": [{"measurement": "IC50", "setting": "HaCaT; Homo sapiens, HaCaT", "result": "10.4 ± 0.6", "unit": "µM"}, {"measurement": "IC50", "setting": "DU145 (AR-); Homo sapiens, DU-145, 48 h", "result": "13 ± 1", "unit": "µM"}, {"measurement": "IC50", "setting": "HT-29; Homo sapiens, HT-29, 48 h", "result": "0.9 ± 0.2", "unit": "µM"}, {"measurement": "IC50", "setting": "PC3 (AR-); Homo sapiens, PC3/AR", "result": "13 ± 1", "unit": "µM"}, {"measurement": "IC50", "setting": "M21; Homo sapiens, M21, 48 h", "result": "4.2 ± 0.2", "unit": "µM"}, {"measurement": "IC50", "setting": "MCF7 (ER + ); Homo sapiens, MCF7, 48 h", "result": "0.013 ± 0.005", "unit": "µM"}, {"measurement": "IC50", "setting": "T84 wt; Homo sapiens", "result": "6.9 ± 0.3", "unit": "µM"}, {"measurement": "IC50", "setting": "MDA-MB-231 (ER-); Homo sapiens, MDA-MB-231, 48 h", "result": "7 ± 1", "unit": "µM"}]}
{"smiles": "CC(O)(CS(=O)(=O)c1ccc(F)cc1)C(=O)Nc1ccc(C#N)c(C(F)(F)F)c1", "note": "(centres unmarked) [Bicalutamide, bicalutamide, reference compound]", "values": [{"measurement": "IC50", "setting": "HaCaT; Homo sapiens, HaCaT", "result": "95 ± 5", "unit": "µM"}, {"measurement": "IC50", "setting": "DU145 (AR-); Homo sapiens, DU-145, 48 h", "result": "52 ± 1", "unit": "µM"}, {"measurement": "IC50", "setting": "HT-29; Homo sapiens, HT-29, 48 h", "result": "42 ± 2", "unit": "µM"}, {"measurement": "IC50", "setting": "PC3 (AR-); Homo sapiens, PC3/AR", "result": "62 ± 3", "unit": "µM"}, {"measurement": "IC50", "setting": "M21; Homo sapiens, M21, 48 h", "result": "49 ± 1", "unit": "µM"}, {"measurement": "IC50", "setting": "T84 wt; Homo sapiens", "result": "56 ± 2", "unit": "µM"}]}
